Assay [1] concerns the target WDR5 (Homo sapiens, UniProt P61964). The assay can be described thus: WDR5 HTRF binding assay. Conditions: read-out: (a) WDR5 HTRF Pep Val v.1[Inhibitor/IC50]Qualified AC50. An outline of the steps:
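6 nM WDR5 and 20 nM biotin-MLL1 WIN peptide (3762-3773) were incubated with compound (12-point, 3-fold dilutions) in pH 7.5 Hepes/NaCl/DTT buffer for 20 min at rt. Streptavidin-APC plus anti-His-Eu were then added for 1 hr, with HTRF read at 665/615. IC50 was fit from control-normalized activity; the counter assay used 15 nM biotin-PEG-His peptide.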

The target of assay [2] is wild type MLL1 four-member complex (MLL1-4C) (Homo sapiens, UniProt P61964). Briefly: MLL1 LC-MS assay (SAH production). It counts as biochemical. To be noted: read-out: (b) MLL LCMS Peptide Val.v.1 Qualified AC50. An outline of the steps:
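MLL1-4C (30 nM final) was preincubated 20 min with compound (3-fold dilutions, 8 or 12 points) and SAM in Tris-HCl pH 8.0 buffer. H3K4me0 peptide (histone H3[1-21]-biotin) was then added, giving final 2.5 μM SAM and 10 μM substrate, and reactions ran 120 min at rt. After TFA/d4-SAH quench, SAH was quantified by LC-MS/MS and IC50 fitted from control-normalised activity.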

The subject of assay [3] is MV4-11 cells. Briefly: MV4-11 6-day cell growth CTG (CellTiter-Glo) assay. Format: cell-based. To be noted: Homo sapiens, MV4-11, 144 h, 6 days, read-out: (c) MLL/WDR5 cell proliferation assay//MLL/WDR5 proliferation MV4:11 Qualified AC50. The gist of the method:
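Exponentially growing MV4-11 AML cells (RPMI 1640, 10% FBS) seeded at 300 cells/well with 12-point 1:3 compound dilutions, top final concentration 50 μM. Viability read by CellTiter-Glo luminescence after 6 days at 37° C; % inhibition vs DMSO-only wells fitted to dose-response for IC50.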
On the technique in general: In ATP-based viability assays light output follows the ATP content of the culture.

Turning to `CNc1nccn1Cc1cc2c(c(-c3cncnc3)c1)CCN([C@@H](C)c1cc(OC)c(F)cn1)C2=O` [Example 59, (S)-2-(1-(5-fluoro-4-methoxypyridin-2-yl)ethyl)-7-((2-(methylamino)-1H-imidazol-1-yl)methyl)-5-(pyrimidin-5-yl)-3,4-dihydroisoquinolin-1(2H)-one], the IC50 in assay [1] was in the range of 10 to 1000 nM. Moreover, the AC50 in assay [2] and in assay [3] was 10 to 1000 nM each time.

In the case of `CNc1nccn1Cc1cc2c(c(-c3cc(CO)cnc3Cl)c1)CCN(Cc1cc(F)cc(Cl)c1)C2=O` [Example 67, 5-(2-chloro-5-(hydroxymethyl)pyridin-3-yl)-2-(3-chloro-5-fluorobenzyl)-7-((2-(methylamino)-1H-imidazol-1-yl)methyl)-3,4-dihydroisoquinolin-1(2H)-one], in assay [1], the IC50 was in the range of 10 to 1000 nM. The AC50 in assay [2] and in assay [3] was 10 to 1000 nM in each case.

Turning to `CCOc1cc(CN2CCc3c(Cl)cc(Cn4ccnc4NC)cc3C2=O)cnc1C#N` [Example 6, 5-((5-chloro-7-((2-(methylamino)-1H-imidazol-1-yl)methyl)-1-oxo-3,4-dihydroisoquinolin-2(1H)-yl)methyl)-3-ethoxypicolinonitrile], the IC50 in assay [1] is 10 to 1000 nM. For the same compound, the AC50 in assay [2] and in assay [3] was 10 to 1000 nM each time.

With `CCOc1cc(CN2CCc3c(cc(CCN(C)CC)cc3-c3cc(N)cnc3C)C2=O)ncc1C#N` [Example 201, 6-((5-(5-amino-2-methylpyridin-3-yl)-7-(2-(ethyl(methyl)amino)ethyl)-1-oxo-3,4-dihydroisoquinolin-2(1H)-yl)methyl)-4-ethoxynicotinonitrile], the IC50 in assay [1] was 10 to 1000 nM. In addition, the AC50 in assay [2] and in assay [3] was 10 to 1000 nM throughout.

Regarding `CCOc1cc([C@H](C)N2CCc3c(cc(CCN(C)CCF)cc3-c3cn(C)c(=O)cc3Cl)C2=O)ncc1C#N` [Example 251], the IC50 in assay [1] was 10 to 1000 nM. Also, the AC50 in assay [2] and in assay [3] was 10 to 1000 nM throughout.

`CCOc1cc([C@H](C)N2CCc3c(cc(CCN(C)CC)cc3N3CC[C@H](O)C3)C2=O)ncc1C#N` [Example 210]: in assay [1], the IC50 lay in the range of 10 to 1000 nM. The AC50 in assay [2] was 10 to 1000 nM; in assay [3], 1000 to 25000 nM.

For `CCOc1cc([C@H](C)N2CCc3c(cc(CCN(C)CCOC)cc3-c3ccc(F)nc3C)C2=O)ncc1C#N` [Example 234], in assay [1], the IC50 was less than 10 nM. Further, the AC50 in assay [2] and in assay [3] was 10 to 1000 nM each time.

For the compound `CCOc1cc([C@H](C)N2CCc3c(cc(CCN(C)CCO)cc3-c3ccc(F)nc3C)C2=O)ncc1C#N` [Example 252], in assay [1], the IC50 lay in the range of 10 to 1000 nM. Further, the AC50 in assay [2] and in assay [3] was 10 to 1000 nM each time.

Take `CCOc1cc([C@H](C)N2CCc3c(cc(Cn4ccnc4NC)cc3C3CC3)C2=O)ncc1C#N` [Example 83, (S)-6-(1-(5-cyclopropyl-7-((2-(methylamino)-1H-imidazol-1-yl)methyl)-1-oxo-3,4-dihydroisoquinolin-2(1H)-yl)ethyl)-4-ethoxynicotinonitrile]: in assay [1], the IC50 lay within 10 to 1000 nM. For the same compound, the AC50 in assay [2] and in assay [3] was 10 to 1000 nM each time.

With `CCOc1cc([C@H](C)N2CCc3c(cc(CCN(C)CC)cc3-c3cc(OC)ncc3C)C2=O)ncc1C#N` [Example 188, (S)-4-ethoxy-6-(1-(7-(2-(ethyl(methyl)amino)ethyl)-5-(2-methoxy-5-methylpyridin-4-yl)-1-oxo-3,4-dihydroisoquinolin-2(1H)-yl)ethyl)nicotinonitrile], the IC50 in assay [1] is less than 10 nM. The AC50 in assay [2] and in assay [3] was 10 to 1000 nM throughout.

As to `CCOc1cc([C@H](C)N2CCc3c(cc(CCN(C)CCOC)cc3-c3cn(C)c(=O)cc3Cl)C2=O)ncc1C#N` [Example 240], in assay [1], the IC50 was less than 10 nM. The AC50 in assay [2] and in assay [3] was 10 to 1000 nM in each case.

In the case of `CCOc1cc([C@H](C)N2CCc3c(cc(CCN(C)CC)cc3-c3cc(CO)cnc3Cl)C2=O)ncc1F` [Example 120, (S)-5-(2-chloro-5-(hydroxymethyl)pyridin-3-yl)-2-(1-(4-ethoxy-5-fluoropyridin-2-yl)ethyl)-7-(2-(ethyl(methyl)amino)ethyl)-3,4-dihydroisoquinolin-1(2H)-one], the IC50 in assay [1] was less than 10 nM. Also, the AC50 in assay [2] and in assay [3] was 10 to 1000 nM throughout.

For the compound `CCOc1cc([C@H](C)N2CCc3c(cc(CCN(C)CC)cc3-c3cc(CO)cnc3Cl)C2=O)ncc1C#N` [Example 124, (S)-6-(1-(5-(2-chloro-5-(hydroxymethyl)pyridin-3-yl)-7-(2-(ethyl(methyl)amino)ethyl)-1-oxo-3,4-dihydroisoquinolin-2(1H)-yl)ethyl)-4-ethoxynicotinonitrile], in assay [1], the IC50 was less than 10 nM. Besides, the AC50 in assay [2] and in assay [3] was 10 to 1000 nM in each case.

In the case of `CCOc1cc([C@H](C)N2CCc3c(cc(Cn4ccnc4C)cc3-c3cc(CN(C)C)nn3C)C2=O)ncc1C#N` (single isomer, unassigned) [Example 270], the IC50 in assay [1] was less than 10 nM. Also, the AC50 in assay [2] and in assay [3] was 10 to 1000 nM throughout.

For the compound `CCOc1cc([C@H](C)N2CCc3ccc(Cn4ccnc4NC)cc3C2=O)cnc1C#N` [Example 97, (S)-3-ethoxy-5-(1-(7-((2-(methylamino)-1H-imidazol-1-yl)methyl)-1-oxo-3,4-dihydroisoquinolin-2(1H)-yl)ethyl)picolinonitrile], the IC50 in assay [1] was in the range of 10 to 1000 nM. For the same compound, the AC50 in assay [2] and in assay [3] was 10 to 1000 nM each time.

As for `CCOc1cc([C@H](C)N2CCc3c(cc(CCN(C)CC(C)O)cc3-c3cn(C)c(=O)cc3Cl)C2=O)ncc1C#N` (stereo partly drawn) [Example 239], the IC50 in assay [1] was less than 10 nM. The AC50 in assay [2] and in assay [3] was 10 to 1000 nM in each case.

For the compound `CNc1nccn1Cc1cc2c(c(-c3cc([C@@H](C)O)cnc3Cl)c1)CCN(Cc1ccc(F)c(OC)c1)C2=O` (single isomer, unassigned) [Example 75], the IC50 in assay [1] is less than 10 nM. In addition, the AC50 in assay [2] and in assay [3] was 10 to 1000 nM each time.

Take `CCN(C)CCc1cc2c(c(-c3cn(C)nc3C)c1)CCN([C@@H](C)c1cc(OC)c(F)cn1)C2=O` [Example 113, (S)-5-(1,3-dimethyl-1H-pyrazol-4-yl)-7-(2-(ethyl(methyl)amino)ethyl)-2-(1-(5-fluoro-4-methoxypyridin-2-yl)ethyl)-3,4-dihydroisoquinolin-1(2H)-one]: the IC50 in assay [1] is less than 10 nM. For the same compound, the AC50 in assay [2] and in assay [3] was 10 to 1000 nM in each case.

Regarding `CCOc1cc([C@H](C)N2CCc3c(cc(CCN(C)CC)cc3-c3cn(C)c(=O)cc3CC)C2=O)ncc1C#N` [Example 193, (S)-4-ethoxy-6-(1-(7-(2-(ethyl(methyl)amino)ethyl)-5-(4-ethyl-1-methyl-6-oxo-1,6-dihydropyridin-3-yl)-1-oxo-3,4-dihydroisoquinolin-2(1H)-yl)ethyl)nicotinonitrile], the IC50 in assay [1] was less than 10 nM. The AC50 in assay [2] and in assay [3] was 10 to 1000 nM throughout.

`CNc1nccn1Cc1cc2c(c(C3CC3)c1)CCN([C@@H](C)c1cc(OC)c(F)cn1)C2=O` [Example 85, (S)-5-cyclopropyl-2-(1-(5-fluoro-4-methoxypyridin-2-yl)ethyl)-7-((2-(methylamino)-1H-imidazol-1-yl)methyl)-3,4-dihydroisoquinolin-1(2H)-one]: the IC50 in assay [1] is 10 to 1000 nM. For the same compound, the AC50 in assay [2] and in assay [3] was 10 to 1000 nM throughout.

Regarding `CCOc1cc(C(C)N2CCc3c(cc(CCN(C)CCOC)cc3-c3cn(C)c(=O)cc3Cl)C2=O)ncc1C#N` (stereo not drawn) [Example 233], the IC50 in assay [1] was less than 10 nM. In addition, the AC50 in assay [2] and in assay [3] was 10 to 1000 nM in each case.

For the compound `CCOc1cc([C@H](C)N2CCc3c(cc(CCN(C)CC)cc3-c3cn(C)c(=O)cc3C(F)(F)F)C2=O)ncc1C#N` [Example 182, (S)-4-ethoxy-6-(1-(7-(2-(ethyl(methyl)amino)ethyl)-5-(1-methyl-6-oxo-4-(trifluoromethyl)-1,6-dihydropyridin-3-yl)-1-oxo-3,4-dihydroisoquinolin-2(1H)-yl)ethyl)nicotinonitrile], the IC50 in assay [1] was less than 10 nM. Also, the AC50 in assay [2] and in assay [3] was 10 to 1000 nM each time.

On to `CCOc1cc([C@H](C)N2CCc3c(Cl)cc(Cn4ccnc4NC)cc3C2=O)ncc1F` [Example 5, (S)-5-chloro-2-(1-(4-ethoxy-5-fluoropyridin-2-yl)ethyl)-7-((2-(methylamino)-1H-imidazol-1-yl)methyl)-3,4-dihydroisoquinolin-1(2H)-one], for which the IC50 in assay [1] lay within 10 to 1000 nM. In addition, the AC50 in assay [2] and in assay [3] was 10 to 1000 nM in each case.

Regarding `CCOc1cc(C(C)N2CCc3c(cc(CCN(C)CC)cc3-c3ccc(Cl)nc3C)C2=O)ncc1C#N` (stereo not drawn) [Example 147, 6-(1-(5-(6-chloro-2-methylpyridin-3-yl)-7-(2-(ethyl(methyl)amino)ethyl)-1-oxo-3,4-dihydroisoquinolin-2(1H)-yl)ethyl)-4-ethoxynicotinonitrile], in assay [1], the IC50 was 10 to 1000 nM. For the same compound, the AC50 in assay [2] and in assay [3] was 10 to 1000 nM throughout.
